The values below come from publication PMC6842111 (Neuron, 2019).

Read-outs that look alike come from different tables or passages of the source.

For one series, the system named is human α3β4 receptor. The note with it: ref Tuan et al., 2015; cited from earlier work.
A short description of series [1]: pKa of the bridging nitrogen. The format is physicochemical. The following applies: positively-charged bridging nitrogen of the bicyclic ring.
Another series has as its system α3β4. The following applies: cited from earlier work.
Series [2] has as its target T1, α3β4 receptor (Homo sapiens, UniProt P30926+P32297, DEL362-406/DEL379-429/F412N/I408D/INS413[…]/INS432[…]/L414K/P409L/R410E/R415Y/S416L/S433L/V431D). Nature of the series: Functional response to nicotine in presence of Fab. The following applies: Fig. S1B. It counts as cell-based.
Series [3] has as its target T1, α3β4 receptor. The format is binding. The note with it: Fab in large excess (1 μM); Fig. S1C-F.
Setting [4] is: ref Eaton et al., 2003, Xiao et al., 1998.

A word on the pKa: it is the pH at which an ionisable group is half protonated. Low values mean a group that gives up its proton readily, high ones a group that holds its proton tightly. Consider `CN1C2CCCC1CC(Nc1ccccc1Br)C2` (centres unmarked) [AT-1001], for which, in the series on human α3β4 receptor, the “affinity to the human α3β4 receptor” value is listed as “sub-nanomolar” and the “selectivity for α3β4 over α4β2” value is listed as ~ 200 fold. The molecule further had a pKa in series [1] of 9.35.

As for `CC(=O)OCC[N+](C)(C)C` [acetylcholine], the “affinity lower for α3β4 than for α4β2” value in the series on α3β4 (setting [4]) is on record as 10-100 fold.

Turning to `Clc1ccc(C2CC3CCC2N3)cn1` (centres unmarked) [epibatidine], the “affinity lower for α3β4 than for α4β2” value in the series on α3β4 (setting [4]) was 10-100 fold.

For the molecule `CN1CCC[C@H]1c1cccnc1` [nicotine], the “affinity lower for α3β4 than for α4β2” value in the series with α3β4 is listed as 10-100 fold.

B1: Fab: Fab fragment of the 4G9 mouse monoclonal antibody (IgG2b, κ) raised against α3β4 (antibody, V domains shown)
VH: QVQLQQSGPELVRPGVSVKISCKGSGYTFTDYALYWVRQSHAKSLEWIGVINPYSGNTNYNQKFKGKATMTVDKSSSTAYMELARLTSDDSAIYYCASGYDGYPYTMDYWGPGASVTVSS
VL: QIVLTQSPAIMSASPGEKVTMTCSASSSMTYMHWYQQKSGTSPKRWIYDTSQLASGVPARFRGSGSGTSFSLTISSMEAEDAATYYCQQWSSNPLTFGGGTKLELK
B1: the “effect on the functional response to nicotine” value with α3β4 receptor [2] is “little to no effect”. The “effect on ligand binding” value with α3β4 receptor [3] is “small positive effect”.
